Assay results reported in publication PMC11965660, “Isobavachalcone ameliorates Alzheimer disease pathology by autophagy-mediated clearance of amyloid beta and inhibition of NLRP3 inflammasome in primary astrocytes and 5x-FAD mice” (Frontiers in Pharmacology, 2025).

Tested on: 5x-FAD mice hippocampus
Experiment: Immunoblotting of autophagy, NLRP3 inflammasome and neuroinflammation proteins in hippocampus
Type: in vivo
Details: 25 and 50 mg/kg
Experimental: Cellular lysates were prepared using radio immuno precipitation assay (RIPA) buffer for protein analysis. Briefly, the cell pellet was dissolved in RIPA buffer containing sodium fluoride, sodium orthovanadate, phenyl methyl sulfonyl fluoride (PMSF) and 1% protease inhibitor cocktail for 1 h with vertexing sample every 15 min. The supernatant was collected after high-speed centrifugation of samples for 20 min at 4°C. For analysis of proteins in mice hippocampi, the hippocampi isolated from mice brains was immediately washed with saline and stored in liquid nitrogen. For lysates preparation, tissue was homogenized in RIPA buffer substituted with sodium fluoride, sodium orthovanadate, phenyl methyl sulfonyl fluoride and 1% protease inhibitor cocktail. Total protein was measured using Bradford assay. Proteins were separated using SDS-PAGE and then transferred from gel to PVDF membrane. The protein of interest was labeled with a specific primary antibody overnight at 4°C. Further, the blot was incubated with corresponding HRP-conjugated secondary antibody for 1 h at room temperature. The band were visualized in the Genaxy Chemi Doc imaging system (Make: Syngene, Maryland, USA; Model: G: BOX, XT-4). Densitometry analysis of all the immunoblots was performed by using ImageJ software. Band density of proteins was normalized with β-actin. The phosphorylated proteins were normalized with their total forms.
Hemizygous 5x-FAD transgenic mice (B6.Cg-Tg(APPSwFlLon, PSEN1*M146L*L286V) 6799Vas/Mmjax; MMRRC Strain: 034848-JAX) on congenic C57BL/6J genetic background were used for experiments. The 5x-FAD mice were genotyped using APP-specific qPCR probes to detect the transgene as per the protocol of Jackson Laboratory. Six months old 5x-FAD mice were randomly divided into three groups (n = 5), based on their body weights, with three males and two females in each group. We used mixed-cohort of males and females for our study to exclude any gender biased effect of IBC. Also, AD symptoms are more pronounced in females than in males ([Aggarwal and Mielke, 2023]), making it possible that males and females respond differently to the drug and treatment. Considering this, it is important to show effect of IBC on both sexes. At this age, Aβ deposition and neuroinflammation has already progressed in these mice. We have used IBC as a curative drug rather than a preventive drug. Prior to the initiation of the study, all the animals were acclimatized for 1 week under standard laboratory conditions; animals were drug naive with no prior procedures performed. All testing were performed from 1 to 4 p.m. IBC was orally (OD) given to two groups at different doses, 25 mg/kg (1% DMSO, 2% Tween 80, 19% PEG200, and 78% distilled water) and 50 mg/kg (1% DMSO, 5% Tween 80, 19% PEG200% and 75% distilled water) using oral gavage. 5x-FAD control mice were administered with vehicle (1% DMSO, 5% Tween 80, 19% PEG200% and 75% distilled water). For behavioral and Immunohistochemistry assays, experimenters were blinded to animal identity while carrying out the procedures.

Q: CC(C)=CCc1c(O)ccc(C(=O)/C=C/c2ccc(O)cc2)c1O [IBC, isobavachalcone] was tested. Which “GFAP expression (western blot)” value did it give?
A: decreased expression

Q: And the ASC level (western blot)?
A: significant abrogation

Q: What about the ATG7 expression (western blot) of the same compound?
A: increased expression

Q: What about the CASP1 level (western blot) of the same compound?
A: significant abrogation

Q: What about the IBA1 expression (western blot) of the same compound?
A: decreased expression

Q: And the SQSTM1 expression (western blot)?
A: significantly decreased

Q: And the “cleavage of IL-1β” value (western blot)?
A: reduced cleavage

Q: What about the pAMPK expression (western blot) of the same compound?
A: increased expression
